Reference: US10131653B2, “Heterocyclic compound” (TAKEDA PHARMACEUTICAL COMPANY LIMITED, priority 2015, dated 2018)

Key:
human OX1 receptor = biological target: T1, human OX1 receptor (Homo sapiens, UniProt O43613); test: Measurement of orexin receptor antagonistic activity (calcium fluorescence, FLIPRtetra); assay type: cell-based; settings: 10 μM test compound, CHO cells expressing human OX1 receptor, OX-A 1 nM; for inhibition at 10 µM: CHO, read-out: Human Orexin1 receptor inhibition (at 10 μM)
T1 construct: expressed in transfected cells; host or cells: CHO cells
T1 sequence (O43613 1-425): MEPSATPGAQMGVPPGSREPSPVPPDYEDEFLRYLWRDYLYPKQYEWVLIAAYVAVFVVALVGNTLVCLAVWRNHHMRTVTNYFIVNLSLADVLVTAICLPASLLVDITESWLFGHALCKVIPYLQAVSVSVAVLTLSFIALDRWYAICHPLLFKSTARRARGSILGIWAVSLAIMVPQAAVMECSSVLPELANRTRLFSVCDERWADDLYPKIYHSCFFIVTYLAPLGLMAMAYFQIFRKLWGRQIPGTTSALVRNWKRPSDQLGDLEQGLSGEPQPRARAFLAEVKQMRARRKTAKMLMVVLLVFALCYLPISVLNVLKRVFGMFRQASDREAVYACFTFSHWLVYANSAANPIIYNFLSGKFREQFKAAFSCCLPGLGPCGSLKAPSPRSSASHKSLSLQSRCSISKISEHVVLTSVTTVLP
Outline: (§1)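 CHO cells expressing human OX1 or OX2 receptor, cultured one day. Compound in HBSS/20 mM HEPES/0.1% BSA added, then orexin-A at 1 nM final (OX1) or 0.3 nM final (OX2); calcium fluorescence by FLIPRtetra every 1 s for 2 min.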

human OX2 receptor = biological target: T2, human OX2 receptor (Homo sapiens, UniProt O43614); test: as above; assay type: cell-based; settings: 10 μM test compound, CHO cells expressing human OX2 receptor, OX-A 0.3 nM; for inhibition at 10 µM: CHO, read-out: Human Orexin2 receptor inhibition (at 10 μM)
T2 construct: expressed in transfected cells; host or cells: CHO cells
T2 sequence (O43614 1-444): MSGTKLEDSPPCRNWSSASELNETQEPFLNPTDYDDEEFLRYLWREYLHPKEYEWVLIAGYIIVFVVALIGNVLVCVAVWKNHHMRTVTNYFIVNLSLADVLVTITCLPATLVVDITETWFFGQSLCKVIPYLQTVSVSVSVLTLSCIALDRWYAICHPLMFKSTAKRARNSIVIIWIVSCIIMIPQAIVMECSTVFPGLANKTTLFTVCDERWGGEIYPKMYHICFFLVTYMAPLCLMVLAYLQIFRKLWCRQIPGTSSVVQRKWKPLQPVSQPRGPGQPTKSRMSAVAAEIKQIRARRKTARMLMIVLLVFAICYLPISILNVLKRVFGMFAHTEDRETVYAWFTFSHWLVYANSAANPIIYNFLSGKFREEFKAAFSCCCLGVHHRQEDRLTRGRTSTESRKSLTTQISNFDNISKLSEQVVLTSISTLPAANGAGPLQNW
Outline: as §1

| SMILES | Human Orexin1 receptor inhibition (at 10 μM) (human OX1 receptor) | inhibition at 10 µM (human OX2 receptor) | Human Orexin2 receptor inhibition (at 10 μM) (human OX2 receptor) | inhibition at 10 µM (human OX1 receptor) |
| --- | --- | --- | --- | --- |
| Cc1cc(N2CCN(C(=O)c3ccccc3-n3nccn3)C(C)C(C)O2)nc(C)n1 (stereo not drawn) [Example 192, (2-(2,6-dimethylpyrimidin-4-yl)-6,7-dimethyl-1,2,5-oxadiazepan-5-yl)(2-(2H-1,2,3-triazol-2-yl)phenyl)methanone] | 64% | 101% | – | – |
| Cc1cc(N2CCN(C(=O)c3ccccc3-n3nccn3)C(C)C(C)O2)nc(C)n1 (stereo not drawn) [Example 193, (2-(2,6-dimethylpyrimidin-4-yl)-6,7-dimethyl-1,2,5-oxadiazepan-5-yl)(2-(2H-1,2,3-triazol-2-yl)phenyl)methanone] | 89% | – | 103% | – |
| Cc1cc(N2CCN(C(=O)c3cc(Cl)ccc3-n3nccn3)[C@H](C)CO2)nc(C)n1 [Example 194, (5-chloro-2-(2H-1,2,3-triazol-2-yl)phenyl)((6R)-2-(2,6-dimethylpyrimidin-4-yl)-6-methyl-1,2,5-oxadiazepan-5-yl)methanone] | – | 100% | – | 66% |
| Cc1cc(N2CCN(C(=O)c3cc(Cl)ccc3-c3ncccn3)[C@H](C)CO2)nc(C)n1 [Example 195, (5-chloro-2-(pyrimidin-2-yl)phenyl)((6R)-2-(2,6-dimethylpyrimidin-4-yl)-6-methyl-1,2,5-oxadiazepan-5-yl)methanone] | – | 102% | – | 81% |
| Cc1ccc(-c2ncccn2)c(C(=O)N2CCN(c3cc(C)nc(C)n3)O[C@@H](C)C2)c1 [Example 196, ((7S)-2-(2,6-dimethylpyrimidin-4-yl)-7-methyl-1,2,5-oxadiazepan-5-yl)(5-methyl-2-(pyrimidin-2-yl)phenyl)methanone] | – | 100% | – | 89% |
| Cc1cc(N2CCN(C(=O)c3cc(Cl)ccc3-c3ncccn3)C[C@H](C)O2)nc(C)n1 [Example 197, (5-chloro-2-(pyrimidin-2-yl)phenyl)((7S)-2-(2,6-dimethylpyrimidin-4-yl)-7-methyl-1,2,5-oxadiazepan-5-yl)methanone] | – | 102% | – | 96% |
| Cc1cc(N2CCN(C(=O)c3cc(F)c(F)cc3-c3ncccn3)C[C@H](C)O2)nc(C)n1 [Example 198, (4,5-difluoro-2-(pyrimidin-2-yl)phenyl)((7S)-2-(2,6-dimethylpyrimidin-4-yl)-7-methyl-1,2,5-oxadiazepan-5-yl)methanone] | – | 98% | – | 80% |
| Cc1cc(N2CCN(C(=O)c3cc(C(F)(F)F)ccc3-n3nccn3)C[C@H](C)O2)nc(C)n1 [Example 199, ((7S)-2-(2,6-dimethylpyrimidin-4-yl)-7-methyl-1,2,5-oxadiazepan-5-yl)(2-(2H-1,2,3-triazol-2-yl)-5-(trifluoromethyl)phenyl)methanone] | – | 100% | – | 42% |
| Cc1cc(N2CCN(C(=O)c3ccc(Cl)cc3-n3nccn3)C[C@H](C)O2)nc(C)n1 [Example 200, (4-chloro-2-(2H-1,2,3-triazol-2-yl)phenyl)((7S)-2-(2,6-dimethylpyrimidin-4-yl)-7-methyl-1,2,5-oxadiazepan-5-yl)methanone] | – | 100% | – | 83% |
| CCc1ccc(-n2nccn2)c(C(=O)N2CCN(c3cc(C)nc(C)n3)O[C@@H](C)C2)c1 [Example 201, ((7S)-2-(2,6-dimethylpyrimidin-4-yl)-7-methyl-1,2,5-oxadiazepan-5-yl)(5-ethyl-2-(2H-1,2,3-triazol-2-yl)phenyl)methanone] | – | 101% | – | 60% |
| Cc1cc(N2CCN(C(=O)c3cc(C(F)(F)F)ccc3-n3nccn3)CCO2)nc(C)n1 [Example 202, (2-(2,6-dimethylpyrimidin-4-yl)-1,2,5-oxadiazepan-5-yl)(2-(2H-1,2,3-triazol-2-yl)-5-(trifluoromethyl)phenyl)methanone] | – | 102% | – | 17% |
| CCc1ccc(-n2nccn2)c(C(=O)N2CCON(c3cc(C)nc(C)n3)CC2)c1 [Example 203, (2-(2,6-dimethylpyrimidin-4-yl)-1,2,5-oxadiazepan-5-yl)(5-ethyl-2-(2H-1,2,3-triazol-2-yl)phenyl)methanone] | – | 101% | – | 25% |
| Cc1cc(N2CCN(C(=O)c3ccc(Cl)cc3-n3nccn3)CCO2)nc(C)n1 [Example 204, (4-chloro-2-(2H-1,2,3-triazol-2-yl)phenyl)(2-(2,6-dimethylpyrimidin-4-yl)-1,2,5-oxadiazepan-5-yl)methanone] | – | 101% | – | 70% |
| Cc1cc(N2CCN(C(=O)c3ccc(Br)cc3-n3nccn3)C[C@H](C)O2)nc(C)n1 [Example 205, (4-bromo-2-(2H-1,2,3-triazol-2-yl)phenyl)((7S)-2-(2,6-dimethylpyrimidin-4-yl)-7-methyl-1,2,5-oxadiazepan-5-yl)methanone] | – | 100% | – | 82% |

The remaining lines, values ahead:

| Human Orexin1 receptor inhibition (at 10 μM) (human OX1 receptor) | inhibition at 10 µM (human OX2 receptor) | Human Orexin2 receptor inhibition (at 10 μM) (human OX2 receptor) | inhibition at 10 µM (human OX1 receptor) | SMILES |
| --- | --- | --- | --- | --- |
| – | 100% | – | 28% | Cc1nccc(N2CCN(C(=O)c3ccccc3-c3ncccn3)C[C@H](C)O2)n1 [Example 206, ((7S)-7-methyl-2-(2-methylpyrimidin-4-yl)-1,2,5-oxadiazepan-5-yl)(2-(pyrimidin-2-yl)phenyl)methanone] |
| – | 81% | – | 25% | COC(=O)c1cc(N2CCN(C(=O)c3cc(Cl)ccc3-n3nccn3)C[C@H](C)O2)nc(C)n1 [Example 207, methyl 6-((7S)-5-(5-chloro-2-(2H-1,2,3-triazol-2-yl)benzoyl)-7-methyl-1,2,5-oxadiazepan-2-yl)-2-methylpyrimidine-4-carboxylate] |
| – | 14% | – | 8% | CCOC(=O)c1cc(N2CCN(C(=O)c3cc(Cl)ccc3-n3nccn3)C[C@H](C)O2)nc(C)n1 [Example 208, ethyl 6-((7S)-5-(5-chloro-2-(2H-1,2,3-triazol-2-yl)benzoyl)-7-methyl-1,2,5-oxadiazepan-2-yl)-2-methylpyrimidine-4-carboxylate] |
| – | 18% | – | -12% | Cc1cc(N2CCN(C(=O)c3ccccc3C#N)C[C@H](C)O2)nc(C)n1 [Example 209, 2-(((7S)-2-(2,6-dimethylpyrimidin-4-yl)-7-methyl-1,2,5-oxadiazepan-5-yl)carbonyl)benzonitrile] |
| – | 97% | – | 51% | Cc1cc(N2CCN(C(=O)c3c(F)cccc3-n3nccn3)C[C@H](C)O2)nc(C)n1 [Example 210, ((7S)-2-(2,6-dimethylpyrimidin-4-yl)-7-methyl-1,2,5-oxadiazepan-5-yl)(2-fluoro-6-(2H-1,2,3-triazol-2-yl)phenyl)methanone] |
| – | 80% | – | 21% | Cc1cc(N2CCN(C(=O)c3ccc(Cl)cc3-n3ccnn3)C[C@H](C)O2)nc(C)n1 [Example 211, (4-chloro-2-(1H-1,2,3-triazol-1-yl)phenyl)((7S)-2-(2,6-dimethylpyrimidin-4-yl)-7-methyl-1,2,5-oxadiazepan-5-yl)methanone] |
| – | 102% | – | 47% | Cc1cc(N2CCN(C(=O)c3ccccc3-c3ncccn3)[C@H](C)CO2)nc(C)n1 [Example 213, ((6R)-2-(2,6-dimethylpyrimidin-4-yl)-6-methyl-1,2,5-oxadiazepan-5-yl)(2-(pyrimidin-2-yl)phenyl)methanone] |
